Results from patent US20130203649A1, “INHIBITORS OF TLR SIGNALING BY TARGETING TIR DOMAIN INTERFACES” (UNIVERSITY OF MARYLAND, BALTIMORE, priority 2012, published 2013).
No end group written: not given here.

What was measured:
Assay type in all cases: cell-based
TLR4 [1] = experiment: Inhibition of TLR4 signaling in thioglycollate-elicited mouse macrophages (effective concentration, overall inhibitory activity); conditions: TLR4 pathway; thioglycollate-elicited mouse macrophages
Procedure: (§1) C57BL/6J mice were obtained from The Jackson Laboratory (Bar Harbor, Me.). Primary peritoneal macrophages were obtained by peritoneal lavage 4 days after intraperitoneal injection (3 ml) of sterile 3% thioglycolate broth. Washed cells were resuspended in RPMI 1640 which contained 2% FBS, 1% penicillin:streptomycin and 2 mM L-glutamine. After plating, cells were incubated overnight at 37° C. and then washed with PBS to remove non-adherent cells. Cells were exposed to peptides 30 min before stimulation with a TLR agonist.
TIRAP/Mal functions to facilitate MyD88 recruitment to the activated TLR4 and TLR2, presumably through a simultaneous interaction with receptor and MyD88 TIR domains. Therefore, multiple TIR:TIR interaction sites are expected in TIRAP TIR. The decoy peptide approach was used to obtain leads on the functional protein-protein interfaces within TIRAP/Mal, a TLR adapter protein. To this end, eleven TIRAP TIR-derived decoy peptides were designed to be structurally homologous to the TLR4 TIR-derived decoy peptides used previously (1), so that each peptide represents a non-fragmented patch of the TIRAP TIR surface, with the entire domain encompassed by the set of peptides. The TIRAP TIR-derived decoy peptides were synthesized in tandem with the cell-permeating sequence of Antennapedia homeodomain (21) and each peptide was tested for the ability to inhibit TLR4 and TLR2 signaling in primary mouse macrophages. Peptide sequences and the structural regions they represent are shown in reference (30).
(§2) C57BL/6J mice were obtained from The Jackson Laboratory (BarHarbor, Me.). Harvesting, culturing, and stimulation of peritoneal macrophages were described in previous publications (1, 18, 19). Escherichia coli K235 LPS (34) was used at the final concentration of 100 ng/ml. The 2,3-bis(palmitoyloxy)-(2-RS)-propyl-N-palmitoyl-(R)-Cys-Ser-Lys4-OH (P3C) and S[2,3-bis(palmitoyloxy)-(2-RS)-propyl]-[R]-Cys-Ser-Lys4-OH (P2C) (EMC Microcollections, Tubingen, Germany) were used at 500 and 50 ng/ml, respectively. Oligonucleotide (ODN) 1668 and low m.w. polyinosinic-polycytidylic acid [poly(I:C)] in complex with LyoVec were obtained from InvivoGen; these agonists were used at 2.5 μM and 400 ng/ml, respectively.

TLR4 [2] = experiment: LPS-induced cytokine mRNA expression in mouse macrophages (real-time RT-PCR); conditions: for LPS-induced cytokine mRNA induction: peritoneal macrophages (FIG. 14A); for LPS-induced TNF-α and IL-1β mRNA expression: 20 μM peptide 30 min, LPS 1 hour (FIG. 13A)
Procedure: as §1
(§3) Total cellular RNA was isolated using Tripure from Roche (San Francisco, Calif.) following manufacture's protocol. RNA was then reverse transcribed using AMV Reverse Transcriptase from Promega (Madison, Wis.) with poly-T priming as per manufacturer's directions. cDNA was then quantified by real-time PCR using Applied Biosystems Fast SYBR Green PCR Master Mix and an ABI Prism 7500HT cycler. Primers used for detection: hypoxanthine phosphoribosyltransferase (HPRT) (forward: […] (SEQ ID NO:51), reverse: […] (SEQ ID NO:52)), TNFα (forward: […] (SEQ ID NO:53), reverse: […] (SEQ ID NO:54)), IL-1β (forward: […] (SEQ ID NO:55), reverse: […] (SEQ ID NO:56)), IFNβ (forward: […] (SEQ ID NO:57), reverse: CTCGGACCACCATCCAGG (SEQ ID NO:58)) and RANTES (forward: […] (SEQ ID NO:59), reverse: […] (SEQ ID NO:60)). The primers were designed using Primer Express 2.0 (Applied Biosystems). Using HPRT as reference, the ΔCt method was used to calculate relative gene expression. One-way ANOVA was preformed, as well as Dunnett's multiple comparison post hoc test with a p≦0.01 selected as the level of significance.
Total RNA was isolated with Nucleospin RNA II kits (Macherey-Nagel, Bethlehem, Pa.), followed by DNase digestion. cDNA was synthesized from 1 μg RNA using Goscript transcriptase (Promega), and subjected to real-time PCR with gene-specific primers for HPRT, TNF-α, IL-1β, IFNβ, and RANTES on H7900 ABI system using Fast SYBR Green master mix (Applied Biosystems, Foster City, Calif.).
To evaluate peptide-inhibitory activities, we first measured LPS-induced cytokine mRNA expression. […] […] Decoy peptide TM4 is derived from the BB loop of TRAM TIR; we previously identified this peptide as an effective TLR4 inhibitor (19).

TLR4 [3] = experiment: LPS-induced MAPK (ERK, JNK, p38) activation in mouse macrophages (Western analysis); conditions: for LPS-induced activation of ERK and JNK MAPKs: peritoneal macrophages (FIG. 14B); for LPS-induced activation of p38 and ERK MAPKs: 20 μM peptide, LPS 30 min
Procedure: Cellular protein extracts were isolated by addition of 240 μL per well cold lysate buffer (20 mM Tris, 50 mM NaCl, 1.5 mM MgCl2, 2 mM EDTA, 10 mM NaF, 2 Mm DTT, 1 mM Na3VO4, 1% Triton). Cells were incubated with lysis solution for 30 min on agitator at 4° C. Lysate was then collected and centrifuged at 14,000 g for 10 minutes at 4° C. After quantification using BioRad protein assay, protein samples were added to Laemmli buffer and then boiled for 10 min. Samples were then resolved by SDS-10% PAGE in Tris/glycine/SDS buffer (25 mM Tris, 250 mM glycine, 0.1% SDS), and transferred onto Immobilon P transfer membranes (Millipore, Bedford, Mass.) (100 V, 1.5 h, 4° C.). Membranes were blocked for 1 h in TBS-T (20 mM Tris-HCl, 150 mM NaCl, 0.1% Tween 20) containing 5% nonfat milk, then probed for overnight at 4° C. with the respective antibodies (Abs) (dilution 1:1000 in TBS-T with 2% BSA). After washing in TBS-T, membranes were incubated with secondary HRP-conjugated, donkey anti-rabbit IgG (1:10,000 dilution in TBS-T with 5% nonfat milk) for 1 h at room temperature. Membranes washed five times in TBS-T before development with ECL reagents (GE Healthcare) according to manufacturer's directions.
HEK293T cells were transfected with indicated plasmids using Superfect Transfection Reagent (Qiagen). Twenty-four hours posttransfection, the cells were lysed using the buffer containing 20 mM HEPES (pH 7.4), 150 mM NaCl, 10 mM NaF, 2 mM Na3VO4, 1 mM EDTA, 1 mM EGTA, 0.5% Triton X-100, 0.1 M DTT, 1 mM PMSF, and protease inhibitor mixture (Roche, Indianapolis, Ind.). Rabbit Ab against phospho-ERK, phospho-JNK, MyD88 (D80F5), STAT1-Y701, total STAT1, and GAPDH were purchased from Cell Signaling Technology (Beverly, Mass.). Rabbit anti-phospho-p38 Ab was purchased from Promega (Madison, Wis.). Goat anti-TLR4 (M−16), rabbit anti-TLR4 (H-80), anti-HA-HRP (F-7), and rabbit anti-b-actin Ab were purchased from Santa Cruz Biotechnology. Mouse anti-Flag M2 and rabbit anti-HA Ab were from Sigma-Aldrich. GFP Ab (A1122) was from Invitrogen. Protein was quantified using Bio-Rad protein quantification kit. Equal amount of protein was loaded and analyzed by 10% SDS-PAGE and immunoblotting. The cell extracts containing equal amount of protein were incubated with 1 μg Ab for 2 h, followed by 4-h incubation with 25 μl protein G agarose beads (Roche); the beads were then washed four times with lysis buffer, boiled in […] sample loading buffer, and analyzed by immunoblotting.
We next examined whether TRAM peptides inhibit the TLR4-mediated p38, ERK, and JNK MAPK activation. Murine macrophages pretreated with peptides for 30 min were challenged with LPS. Cell lysates were collected 30 min post-stimulation and analyzed for MAPK phosphorylation by Western analysis. Consistent with peptide effects on steady-state mRNA, both TM4 and TM6 inhibited activation of all three MAPKs (FIG. 5C). The inhibition of MAPKs by TM4 or TM6 was long lasting; it persisted for at least 1 h after LPS stimulation (data not shown). To characterize further the effects of TRAM peptides on MAPKs, murine macrophages were treated with TRAM peptides, but not challenged by LPS.

TLR2 = target: T1, TLR2 (Mus musculus, UniProt Q9QUN7); experiment: Inhibition of TLR2 signaling in thioglycollate-elicited mouse macrophages (effective concentration, TLR2 agonists P3C/P2C); conditions: for Effective conc.: TLR2 pathway, thioglycollate-elicited mouse macrophages; for IL-1β expression induced by TLR2 agonists: P2C and P3C (FIG. 16A, B)
T1 construct: Primary peritoneal macrophages were obtained by peritoneal lavage; endogenous in cells; host or cells: thioglycollate-elicited mouse peritoneal macrophages
Procedure: as §1
(§4) Protein-free Escherichia coli K235 LPS was used at final concentration of 10 ng/ml to stimulate cells. S-[2,3-bis(palmitoyloxy)-(2-RS)-propyl]-N-palmitoyl-(R)-Cys-Ser-Lys4-OH (P3C) and S-[2,3-bis(palmitoyloxy)-(2-RS)-propyl]-[R]-Cys-Ser-Lys4-OH (P2C) were purchased from EMC microcollections GmbH (Tubingen, Germany) and used for cell stimulation at 500 and 50 ng/ml, respectively. Phospho-ERK1/2 and phospho-JNK1/2 rabbit Abs were obtained from Cell Signaling Technology, Inc. β-actin rabbit Ab were from SantaCruz Biotechnology, Inc.
(§5) Because of the role TRAP plays in TLR2 signaling, TIRAP TIR-derived decoy peptide effects on TLR2-induced cytokine mRNA expression were examined. Thioglycollate-elicited mouse macrophages were stimulated either by P2C, an agonist that induces signaling through TLR2/TLR6 heterodimerization, or P3C, a TLR2/TLR1 agonist, and effects of TIRAP TR-derived decoy peptides on induction of cytokine mRNA were examined. […] To confirm the inhibitory effect of TR3 and TR6 on P3C-induced signaling, IL-6 and TNF-α concentration was measured in macrophage supernatants collected 5 h after stimulation of cells with P3C. […] Concordantly, both TR3 and TR6 diminished the P3C-induced ERK phosphorylation (FIG. 3D).
as §2

TLR2/TLR1 heterodimer = target: T2, TLR2/TLR1 heterodimer (Mus musculus, UniProt Q9QUN7); experiment: P3C-induced cytokine mRNA expression in mouse macrophages; conditions: peptide 30 min; P3C 500 ng/ml 1 hour (FIG. 15A)
T2 construct: endogenous in cells; host or cells: thioglycollate-elicited mouse peritoneal macrophages
Excerpt: as §3, §4, §5, §2

T1 sequence (Q9QUN7 25-784): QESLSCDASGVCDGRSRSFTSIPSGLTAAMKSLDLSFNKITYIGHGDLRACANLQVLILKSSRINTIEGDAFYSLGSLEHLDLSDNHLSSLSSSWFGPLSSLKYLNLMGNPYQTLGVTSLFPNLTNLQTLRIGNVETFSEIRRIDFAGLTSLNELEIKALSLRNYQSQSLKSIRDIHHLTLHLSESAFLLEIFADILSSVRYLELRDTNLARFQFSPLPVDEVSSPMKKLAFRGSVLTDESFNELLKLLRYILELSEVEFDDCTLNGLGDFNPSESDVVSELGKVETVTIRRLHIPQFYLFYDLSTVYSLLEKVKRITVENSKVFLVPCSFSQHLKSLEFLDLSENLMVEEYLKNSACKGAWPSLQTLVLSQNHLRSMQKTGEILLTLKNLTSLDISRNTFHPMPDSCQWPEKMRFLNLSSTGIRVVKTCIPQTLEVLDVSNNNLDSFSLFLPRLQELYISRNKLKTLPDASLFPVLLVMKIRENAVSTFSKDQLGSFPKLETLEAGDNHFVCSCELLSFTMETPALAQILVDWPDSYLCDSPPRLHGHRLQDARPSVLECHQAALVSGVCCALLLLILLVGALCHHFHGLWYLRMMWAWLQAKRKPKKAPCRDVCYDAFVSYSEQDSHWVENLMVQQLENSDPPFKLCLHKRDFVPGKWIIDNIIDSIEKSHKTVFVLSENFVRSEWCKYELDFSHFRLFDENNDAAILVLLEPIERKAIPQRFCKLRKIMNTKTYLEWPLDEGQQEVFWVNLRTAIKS
T2 sequence (Q9QUN7 25-784, one chain of several): as the sequence (Q9QUN7 25-784) above

Sequence	Effective conc. (TLR4 [1]) [µM]	LPS-induced cytokine mRNA induction (TLR4 [2])	LPS-induced activation of ERK and JNK MAPKs (TLR4 [3])	Effective conc. (TLR2) [µM]	LPS-induced TNF-α and IL-1β mRNA expression (TLR4 [2])	LPS-induced activation of p38 and ERK MAPKs (TLR4 [3])	other results
RQIKIWFQNRRMKWKKAGCKKYSRGESIYD [Peptide 4R1]	20	potently inhibit	potently inhibit	–	–	–	–
RQIKIWFQNRRMKWKKEEGVPRFHLC [Peptide 4R3]	20	potently inhibit	potently inhibit	–	–	–	–
RQIKIWFQNRRMKWKKENSDPPFKLC [Peptide 2R3]	–	–	–	40	–	–	Cytokine mRNA expression induced by P3C (TLR2/TLR1 heterodimer): inhibit
RQIKIWFQNRRMKWKKEPIERKAIPQRFCK [Peptide 2DD-αD]	–	–	–	40	–	–	IL-1β expression induced by TLR2 agonists (TLR2): potently inhibits
RQIKIWFQNRRMKWKKEQTDYRLKLC [Peptide M3]	20	–	–	–	inhibit	inhibit	–
RQIKIWFQNRRMKWKKHIFWRRLKNALLD [4R11/4αE]	20	potently inhibit	potently inhibit	–	–	–	–
RQIKIWFQNRRMKWKKIASELIEKRCRRM [Peptide M5]	20	–	–	–	inhibit	inhibit	–
RQIKIWFQNRRMKWKKLHKRDFVPGKWIID [Peptide 2BB]	–	–	–	40	–	–	IL-1β expression induced by TLR2 agonists (TLR2): inhibits
RQIKIWFQNRRMKWKKLRQQVELYRLLSR [Peptide 4R9]	20	potently inhibit	potently inhibit	–	–	–	–
RQIKIWFQNRRMKWKKSDRDVLPGTCVWS [Peptide M4]	20	–	–	–	inhibit	inhibit	–
